Data on one molecule can be found in publication PMC10069031 (European Journal of Medical Research, 2023).

What all share (type): in vivo, mouse
The subject of one series is CCL2. Kind of series: CCL2 ELISA in plasma, CT26 study. The note with it: steady-state analysis. On the procedure:
(§1) CT26 tumor cells were cultivated in RPMI 1640 with 2 mM L-glutamine (Gibco, Invitrogen GmbH) containing 10% fetal bovine serum (Gibco) at 37 °C and 5% CO2. Cell lines were maintained in culture for no longer than 6 months, and mycoplasma contamination was excluded by enzymatic test (MycoAlert, Lonza) prior to in vivo application. Tumor cells (2 × 10^6) were transplanted subcutaneously into 6- to 8-week-old female BALB/c mice. Control mice were subjected to sham surgery without tumor cell transplantation. Blood and tumor samples were collected from untreated control and tumor-bearing mice on days 4 and 8 (n = 3 mice/group). […] Tumor diameter was measured by caliper and body weight was determined at least twice weekly. Tumor volume was calculated using the formula 0.5 × a × b^2, where a and b are the long and short diameters of the tumor, respectively.
For tissue collection, mice were killed at predetermined time points. […] Tumors were removed, and their weights determined, then divided into three pieces, one of which was snap-frozen, one formalin fixed and paraffin embedded, and one weighed and used for FC analyses.
CCL2 was detected in plasma samples and tumor tissue using the U-Plex mouse MCP-1 ELISA Kit (Meso Scale Diagnostics) according to the manufacturer’s instructions. […] For plasma, 12.5 µL was analyzed per animal. […]
On the technique in general: ELISA stands for enzyme-linked immunosorbent assay.

Series [1] in a line: PK of REG in plasma and CT26 tumor tissue. Conditions: after the last dose, CT26 mice. How it is done:
CT26 tumor cells were cultivated in RPMI 1640 with 2 mM L-glutamine (Gibco, Invitrogen GmbH) containing 10% fetal bovine serum (Gibco) at 37 °C and 5% CO2. Cell lines were maintained in culture for no longer than 6 months, and mycoplasma contamination was excluded by enzymatic test (MycoAlert, Lonza) prior to in vivo application. Tumor cells (2 × 10^6) were transplanted subcutaneously into 6- to 8-week-old female BALB/c mice. Control mice were subjected to sham surgery without tumor cell transplantation. Blood and tumor samples were collected from untreated control and tumor-bearing mice on days 4 and 8 (n = 3 mice/group). […] For interim analysis, blood and tumor tissue were collected from each group (n = 3 mice/group) after 7 days of treatment. For pharmacokinetic (PK)/pharmacodynamic (PD) relationship analysis, tissues were taken 24 h after the penultimate dose and 1, 3, 7, and 24 h after the ultimate dose. Tumor diameter was measured by caliper and body weight was determined at least twice weekly. Tumor volume was calculated using the formula 0.5 × a × b^2, where a and b are the long and short diameters of the tumor, respectively.
PK parameters, namely AUC(0–24)ss and Cmax, were calculated from plasma and tumor concentrations using a noncompartmental analysis.

For a further series, the system named is CT26 tumors. Kind of series: Growth of subcutaneous CT26 tumors in BALB/c mice. The note with it: CRC tumors in mice. How it is done: as §1
For tissue collection, mice were killed at predetermined time points. […] Tumors were removed, and their weights determined, then divided into three pieces, one of which was snap-frozen, one formalin fixed and paraffin embedded, and one weighed and used for FC analyses. […]
An overall comparison between treatment groups of the endpoints measured on CT26 and MC38 mice after they had been killed was performed using different statistical models. […]

`CNC(=O)c1cc(Oc2ccc(NC(=O)Nc3ccc(Cl)c(C(F)(F)F)c3)c(F)c2)ccn1` [REG, Regorafenib]: the “CCL2 levels in plasma vs vehicle or untreated samples” value in the series on CCL2 is recorded as “did not change”. In series [1], the “time of highest concentration of REG (Cmax) in plasma” value was ≤ 3 h. For the same molecule, in the series on CT26 tumors, the “partial or complete remission” value is “did not induce partial or complete remission” and the “tumor growth vs vehicle” value is reported as “significantly inhibited”.
